According to the supplement of paper PMC10307832:

Columns and labels:
Test in all cases: relative viability (nuclei count vs DMSO), 5 days (fraction); higher = more cells survive
Alpelisib + Dasatinib = compound: Cc1nc(NC(=O)N2CCC[C@H]2C(N)=O)sc1-c1ccnc(C(C)(C)C(F)(F)F)c1 [Alpelisib] + Cc1nc(Nc2ncc(C(=O)Nc3c(C)cccc3Cl)s2)cc(N2CCN(CCO)CC2)n1 [Dasatinib] (partner 0.075 µM)
Summary of the method: (§1)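 Each reported value is a median over duplicate plates. It expresses relative viability: treated-well nuclei count divided by vehicle-well nuclei count. Lung cancer cell lines in 1536-well plates were dosed by pin tool a day after seeding, alone with one drug or with a fixed anchor-drug dose plus five library-drug doses (not always all listed) in √10 steps, and nuclei were counted after 5 days.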

Vemurafenib + AZD7762 = compound: CCCS(=O)(=O)Nc1ccc(F)c(C(=O)c2c[nH]c3ncc(-c4ccc(Cl)cc4)cc23)c1F [Vemurafenib] + NC(=O)Nc1cc(-c2cccc(F)c2)sc1C(=O)N[C@H]1CCCNC1 [AZD7762] (partner 0.2 µM)
Summary of the method: as §1

Alpelisib + Lapatinib = compound: Cc1nc(NC(=O)N2CCC[C@H]2C(N)=O)sc1-c1ccnc(C(C)(C)C(F)(F)F)c1 [Alpelisib] + CS(=O)(=O)CCNCc1ccc(-c2ccc3ncnc(Nc4ccc(OCc5cccc(F)c5)c(Cl)c4)c3c2)o1 [Lapatinib] (partner 2 µM)
Summary of the method: as §1

Alpelisib + Linsitinib = compound: Cc1nc(NC(=O)N2CCC[C@H]2C(N)=O)sc1-c1ccnc(C(C)(C)C(F)(F)F)c1 [Alpelisib] + C[C@]1(O)C[C@@H](c2nc(-c3ccc4ccc(-c5ccccc5)nc4c3)c3c(N)nccn32)C1 [Linsitinib] (partner 1 µM)
Summary of the method: as §1

Cell Line | relative viability (Alpelisib + Dasatinib; first compound 0.04 µM) | relative viability (Alpelisib + Dasatinib; first compound 0.1265 µM) | relative viability (Alpelisib + Dasatinib; first compound 0.4 µM) | relative viability (Alpelisib + Dasatinib; first compound 1.265 µM) | relative viability (Alpelisib + Dasatinib; first compound 4 µM) | relative viability (Vemurafenib + AZD7762; first compound 0.03162 µM) | relative viability (Vemurafenib + AZD7762; first compound 0.1 µM) | relative viability (Vemurafenib + AZD7762; first compound 0.3162 µM) | relative viability (Vemurafenib + AZD7762; first compound 1 µM) | relative viability (Alpelisib + Lapatinib; first compound 0.04 µM) | relative viability (Alpelisib + Lapatinib; first compound 0.1265 µM) | relative viability (Alpelisib + Lapatinib; first compound 0.4 µM) | relative viability (Alpelisib + Lapatinib; first compound 1.265 µM) | relative viability (Alpelisib + Lapatinib; first compound 4 µM) | relative viability (Alpelisib + Linsitinib; first compound 0.04 µM) | relative viability (Alpelisib + Linsitinib; first compound 0.1265 µM) | relative viability (Alpelisib + Linsitinib; first compound 0.4 µM) | relative viability (Alpelisib + Linsitinib; first compound 1.265 µM) | relative viability (Alpelisib + Linsitinib; first compound 4 µM)
NCI-H2342 | 0.327 | 0.313 | 0.306 | 0.269 | 0.272 | 0.462 | 0.499 | 0.47 | 0.518 | – | – | – | – | – | – | – | – | – | –
SW 1573 | 0.438 | 0.458 | 0.672 | 0.364 | 0.202 | – | – | – | – | 1.06 | 1.06 | 1.06 | 1.09 | 0.873 | 0.919 | 0.826 | 0.725 | 0.685 | 0.547
NCI-H1792 | 0.723 | 0.83 | 0.736 | 0.485 | 0.336 | 0.548 | 0.44 | – | 0.593 | 0.923 | 0.796 | 0.863 | 0.773 | 0.532 | 0.505 | 0.566 | 0.619 | 0.539 | 0.38
LOU-NH91 | 0.478 | 0.482 | 0.482 | 0.452 | 0.34 | 0.735 | 0.682 | 0.594 | 0.816 | 0.767 | 0.597 | 0.632 | 0.511 | 0.522 | 0.989 | 0.828 | 0.782 | 0.735 | 0.653
LC-2-ad | 0.596 | 0.448 | 0.63 | 0.23 | 0.225 | 0.831 | 0.615 | 0.749 | 0.818 | 0.958 | 1.01 | 0.975 | 0.645 | 0.542 | 0.766 | 0.798 | 0.839 | 0.724 | 0.66
HOP-62 | 0.608 | 0.598 | 0.755 | 0.539 | 0.531 | 0.551 | 0.558 | 0.395 | 0.668 | 1.03 | 0.775 | 1.02 | 0.826 | 0.794 | 0.801 | 0.959 | 1.16 | 0.976 | 0.922
NCI-H650 | 0.417 | 0.38 | 0.449 | 0.395 | 0.288 | 0.854 | 1.03 | 0.419 | 0.906 | 0.84 | 0.538 | 0.876 | 0.683 | 0.869 | 0.819 | 0.706 | 0.894 | 0.587 | 0.807
NCI-H1651 | 0.357 | 0.463 | 0.445 | 0.412 | 0.293 | 0.407 | 0.407 | 0.4 | 0.467 | 0.773 | 0.803 | 0.943 | 0.646 | 0.618 | 0.953 | 0.932 | 0.963 | 0.932 | 0.956
CAL-12T | 0.34 | 0.275 | 0.483 | 0.27 | 0.232 | 0.594 | 0.617 | 0.535 | 0.593 | 0.678 | – | 0.658 | – | 0.496 | 0.801 | 0.67 | 0.814 | 0.784 | 0.76
LK-2 | 0.327 | 0.287 | 0.257 | 0.185 | 0.186 | 0.397 | 0.428 | 0.406 | 0.312 | 0.871 | 0.763 | 0.768 | 0.474 | 0.564 | 0.385 | 0.574 | 0.549 | 0.46 | 0.687
EKVX | 0.556 | 0.572 | 0.544 | 0.407 | 0.266 | 0.689 | – | 0.683 | 0.6 | 0.195 | 0.34 | 0.184 | 0.174 | 0.175 | 0.923 | 0.941 | 1.11 | 0.901 | 0.821
EMC-BAC-2 | 0.31 | 0.291 | 0.28 | 0.228 | 0.208 | 1.06 | 1.09 | 0.851 | 1.05 | 0.826 | 0.844 | 0.84 | 0.68 | 0.628 | 0.773 | 0.811 | 0.79 | 0.657 | 0.678
NCI-H520 | 0.184 | 0.218 | 0.153 | 0.174 | 0.149 | – | – | – | – | 0.712 | 0.765 | 0.906 | 0.669 | 0.631 | 1.01 | 1.04 | 1.01 | 1.02 | 0.723
NCI-H322M | 0.225 | 0.223 | 0.257 | 0.253 | 0.273 | 0.559 | – | 0.543 | 0.51 | 0.535 | 0.666 | 0.518 | 0.361 | 0.423 | 0.914 | 0.953 | 0.868 | 0.836 | 0.75
COR-L 105 | 0.301 | 0.444 | 0.346 | 0.273 | 0.26 | – | – | – | – | 0.338 | 0.391 | 0.364 | 0.287 | 0.337 | 1.04 | 0.874 | 0.976 | 0.902 | 0.841
NCI-H2170 | 0.535 | 0.519 | 0.506 | 0.483 | 0.396 | 0.774 | – | 0.685 | 0.766 | 0.269 | 0.273 | 0.239 | 0.248 | 0.269 | – | – | – | – | –
NCI-H358 | 0.157 | 0.176 | 0.164 | 0.112 | 0.121 | 0.551 | – | 0.621 | 0.632 | 0.442 | 0.382 | 0.389 | 0.297 | 0.368 | 0.683 | 0.657 | 0.605 | 0.334 | 0.397
NCI-H1793 | 0.299 | 0.379 | 0.525 | 0.356 | 0.351 | 0.445 | 0.243 | 0.131 | 0.492 | 0.647 | 0.642 | 0.637 | 0.513 | 0.613 | 0.596 | 1.19 | 0.997 | 0.692 | 0.525
